Measured values reported in PMC10890321, “Identification of Mortalin as the Main Interactor of Mycalin A, a Poly-Brominated C-15 Acetogenin Sponge Metabolite, by MS-Based Proteomics” (Marine Drugs, 2024).

Biological target: T1, mortalin (GRP75, mitochondrial Stress-70 protein) (Homo sapiens, UniProt P38646)
T1 construct: gene HSPA9
Test: SPR competition (mortalin pre-incubated with MKT-077, injected over immobilized p53)
Format: binding

T1 sequence (P38646 47-679): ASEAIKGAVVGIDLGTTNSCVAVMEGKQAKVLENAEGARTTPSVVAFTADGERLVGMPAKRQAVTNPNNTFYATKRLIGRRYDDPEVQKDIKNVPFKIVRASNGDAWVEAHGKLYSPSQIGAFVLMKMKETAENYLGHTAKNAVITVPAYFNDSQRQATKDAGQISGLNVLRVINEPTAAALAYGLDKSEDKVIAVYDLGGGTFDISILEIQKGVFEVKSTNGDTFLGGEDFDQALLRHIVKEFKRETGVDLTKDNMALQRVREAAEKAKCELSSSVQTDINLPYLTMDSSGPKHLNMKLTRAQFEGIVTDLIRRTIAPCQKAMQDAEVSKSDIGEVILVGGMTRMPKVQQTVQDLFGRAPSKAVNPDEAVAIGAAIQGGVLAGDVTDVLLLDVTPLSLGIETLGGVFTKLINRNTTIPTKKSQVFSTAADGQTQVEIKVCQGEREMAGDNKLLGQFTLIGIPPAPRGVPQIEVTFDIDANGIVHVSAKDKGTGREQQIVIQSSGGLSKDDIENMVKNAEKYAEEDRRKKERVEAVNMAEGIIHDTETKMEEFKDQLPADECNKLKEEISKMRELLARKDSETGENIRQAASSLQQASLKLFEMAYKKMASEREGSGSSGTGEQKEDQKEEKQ
T1 sequence (P04637 whole entry partner): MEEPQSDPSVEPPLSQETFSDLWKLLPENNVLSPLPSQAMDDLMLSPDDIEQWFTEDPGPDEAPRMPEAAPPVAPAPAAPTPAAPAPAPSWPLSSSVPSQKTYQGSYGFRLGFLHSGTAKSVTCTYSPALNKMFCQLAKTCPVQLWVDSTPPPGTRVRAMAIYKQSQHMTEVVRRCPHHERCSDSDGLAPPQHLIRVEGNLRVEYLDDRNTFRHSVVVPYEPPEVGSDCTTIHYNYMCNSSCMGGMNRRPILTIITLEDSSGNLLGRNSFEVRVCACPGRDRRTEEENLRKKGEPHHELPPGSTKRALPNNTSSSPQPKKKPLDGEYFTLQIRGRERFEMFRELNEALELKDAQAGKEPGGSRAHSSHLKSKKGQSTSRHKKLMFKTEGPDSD

Compound: CCn1c(=O)/c(=C2\Sc3ccccc3N2C)s/c1=C\c1cccc[n+]1CC [MKT-077]
- SPR competition (mortalin pre-incubated with MKT-077, injected over immobilized): 843.4 nM
